The numbers were not newly measured in US10052341B2, “Method for preparing an anthelmintic composition, anthelmintic composition, veterinary treatment method and anthelmintic treatment method” (OURO FINO SAUDE ANIMAL PARTICIPACOES SA, priority 2013, dated 2018), which cites them from elsewhere.

The conditions of the data set: pH 5.

Consider `CCC[S+]([O-])c1ccc2[nH]c(NC(=O)OC)nc2c1` (centres unmarked) [albendazole sulfoxide], for which the Water-solubility is 67 µg/mL.
For the compound `CCCSc1ccc2nc(NC(=O)OC)[nH]c2c1` [albendazole], the Water-solubility was 0.53 µg/mL.
